In patent US20090035353A1 (priority 2001, published 2009):

Columns and labels:
Assay type in all cases: cell-based, Staphylococcus aureus
[1] = test system: production of TSST-1 by S. aureus (MN8)
[2] = test system: TSST-1 production by S. aureus FRI-1169
[3] = test system: TSST-1 production by S. aureus FRI-1187

Compound | ELISA: TSST-1 ng/OD unit [1] | TSST-1 produced when compared to the control [1] | ELISA: TSST-1 ng/OD unit [2] | TSST-1 produced when compared to the control [2] | ELISA: TSST-1 ng/OD unit [3] | TSST-1 produced when compared to the control [3]
4-hydroxydiphenyl methane [4-Hydroxydiphenyl-methane] | 785 | – | – | – | – | –
Oc1cc(Cl)ccc1Oc1ccc(Cl)cc1Cl [Triclosan, triclosan] | 129 | significantly less TSST-1 | 40 | less TSST-1 | 95 | less TSST-1
Oc1c(Cl)cc(Cl)c(Cl)c1Cc1c(O)c(Cl)cc(Cl)c1Cl [Hexachlorophene, hexachlorophene] | 330 | significantly less TSST-1 | – | – | – | –
